# Experimental data from patent US7071293B1, “Alpha helical peptides with broad spectrum antimicrobial activity that are insensitive to salt” (priority 1999, dated 2006).
# Read-outs that look alike come from different tables or passages of the source. Ends that are not written are not given here.
# Experiments:
# MRSA ATCC 33591 = settings: for MIC MRSA [NaCl] High / MIC MRSA [NaCl] Low: ATCC 33591, pH 7.4
# P. aeruginosa MR 3007 = settings: for MIC P. aeruginosa [NaCl] High / MIC P. aeruginosa [NaCl] Low: MR 3007, pH 7.4
# L. monocytogenes EGD = assay: Two stage radial diffusion assay (MIC); assay type: cell-based; design: unit not given here; settings: underlay 0 mM NaCl
# B. cepacia ATCC 25416 = assay: Two stage radial diffusion assay (MIC); assay type: cell-based; design: unit not given here; settings: underlay 0 mM NaCl
# S. aureus 930918-3 = settings: for MIC S. aureus [NaCl] High / MIC S. aureus [NaCl] Low: 930918-3, pH 7.4
# E. coli ML-35p = settings: for E. coli ML-35p MIC, 0 mM NaCl: underlay 0 mM NaCl; for E. coli ML-35p MIC, 0 mM NaCl / E. coli ML-35p MIC, 175 mM NaCl: Table 15; for MIC E. coli [NaCl] High: high salt underlay (10 mM sodium phosphate buffer +100 mM NaCl, pH 7.4); for MIC E. coli [NaCl] High / MIC E. coli [NaCl] Low: Table 13; for MIC E. coli [NaCl] Low: low salt underlay (10 mM sodium phosphate buffer, pH 7.4); for E. coli ML-35p MIC, 175 mM NaCl: underlay 175 mM NaCl
# N. gonorrhoeae = assay: Two stage radial diffusion assay (MIC); assay type: cell-based; design: unit not given here; settings: done only at 100 mM NaCl
# P. aeruginosa PAO1 = settings: for EC50 P. aeruginosa PAO1 μg/ml ± sem: average ± sem
# E. coli DH-5α = settings: DH-5α
# E. coli DH5α = settings: for EC50: DH5α; for EC50 E. coli DH5α: ionic strength 25 mM, avg ± sem
# [1] = ionic strength 25 mM, avg ± sem
# [2] = ionic strength 175 mM, avg ± sem
compound,measurement,setting,value
KIKEKLKKIGQKIQG [Peptide 25],"MRSA ATCC 33591 MIC, 0 mM NaCl",MRSA ATCC 33591,>250 µg/mL
same,"P. aeruginosa MR-3007 MIC, 0 mM NaCl",P. aeruginosa MR 3007,8.7 µg/mL
same,"L. monocytogenes in underlays of low, normal and high salinity, 0 mM NaCl",L. monocytogenes EGD,>250
same,"B. cepacia ATCC 25416 in underlays of low, normal and high salinity, 0 mM NaCl",B. cepacia ATCC 25416,>250
same,"S. aureus 930918-3 MIC, 0 mM NaCl",S. aureus 930918-3,>250 µg/mL
same,"E. coli ML-35p MIC, 0 mM NaCl",E. coli ML-35p,1.6 µg/mL
same,N. gonorrhoeae F 62 (serum-sensitive),N. gonorrhoeae; strain F 62 (serum-sensitive),>79.1
same,N. gonorrhoeae FA 19 (serum-resistant),N. gonorrhoeae; strain FA 19 (serum-resistant),>250
KNIRRIIRKIIHIIKKYG-NH2 [SMAP29X-18B],EC50 P. aeruginosa PAO1,P. aeruginosa PAO1; [1],0.16 ± 0.01 µg/mL
same,EC50 P. aeruginosa PAO1,P. aeruginosa PAO1; [2],0.54 ± 0.05 µg/mL
NLRRIIRKIIHIIKKY-NH2 [SMAP29X-16B],EC50 P. aeruginosa PAO1,P. aeruginosa PAO1; [1],0.75 µg/mL
same,EC50 P. aeruginosa PAO1,P. aeruginosa PAO1; [2],3.78 µg/mL
RGLRALGRKIAHGVKAYG [SMAP29-18AA],EC50 P. aeruginosa PAO1,P. aeruginosa PAO1; [1],0.62 ± 0.13 µg/mL
same,EC50 P. aeruginosa PAO1,P. aeruginosa PAO1; [2],7.85 ± 1.16 µg/mL
KNLRRIIRKIIHIIKKYGPTILRIIRIIG-NH2 [SMAP29X],MIC MRSA [NaCl] High,MRSA ATCC 33591,1.0 µg/mL
same,MIC MRSA [NaCl] Low,MRSA ATCC 33591,6.2 µg/mL
same,MIC P. aeruginosa [NaCl] High,P. aeruginosa MR 3007,1.0 µg/mL
same,MIC P. aeruginosa [NaCl] Low,P. aeruginosa MR 3007,2.6 µg/mL
same,EC50 P. aeruginosa PAO1,P. aeruginosa PAO1; [1],2.74 ± 0.65 µg/mL
same,EC50 P. aeruginosa PAO1,P. aeruginosa PAO1; [2],4.51 ± 0.24 µg/mL
same,MIC S. aureus [NaCl] High,S. aureus 930918-3,1.5 µg/mL
same,MIC S. aureus [NaCl] Low,S. aureus 930918-3,1.6 µg/mL
same,MIC E. coli [NaCl] High,E. coli ML-35p,0.8 µg/mL
same,MIC E. coli [NaCl] Low,E. coli ML-35p,1.5 µg/mL
LRRIIRKIIHIIK-NH2 [SMAP29X-13A],EC50 P. aeruginosa PAO1 μg/ml ± sem,P. aeruginosa PAO1; ionic strength 25 mM,0.27 ± 0.03 µg/mL
same,EC50 P. aeruginosa PAO1 μg/ml ± sem,P. aeruginosa PAO1; ionic strength 175 mM,2.23 ± 0.41 µg/mL
RRIIRKIIHIIKK-NH2 [SMAP29X-13B],EC50 P. aeruginosa PAO1 μg/ml ± sem,P. aeruginosa PAO1; ionic strength 25 mM,0.22 ± 0.02 µg/mL
same,EC50 P. aeruginosa PAO1 μg/ml ± sem,P. aeruginosa PAO1; ionic strength 175 mM,1.51 ± 0.09 µg/mL
LRRIIRKIIHIIK-NH2 [Peptide 15],"MRSA ATCC 33591 MIC, 0 mM NaCl",MRSA ATCC 33591,2.49 ± 0.27 µg/mL
same,"MRSA ATCC 33591 MIC, 175 mM NaCl",MRSA ATCC 33591,65.8 ± 13.3 µg/mL
same,"P. aeruginosa MR-3007 MIC, 0 mM NaCl",P. aeruginosa MR 3007,0.96 ± 0.08 µg/mL
same,"P. aeruginosa MR-3007 MIC, 175 mM NaCl",P. aeruginosa MR 3007,9.14 ± 4.81 µg/mL
same,"P. aeruginosa PA-01 MIC, 0 mM NaCl",P. aeruginosa PA-01,1.07 ± 0.19 µg/mL
same,"P. aeruginosa PA-01 MIC, 175 mM NaCl",P. aeruginosa PA-01,4.66 ± 1.57 µg/mL
same,"S. aureus 930918-3 MIC, 0 mM NaCl",S. aureus 930918-3,1.32 ± 0.22 µg/mL
same,"S. aureus 930918-3 MIC, 175 mM NaCl",S. aureus 930918-3,6.39 ± 1.12 µg/mL
same,"E. coli ML-35p MIC, 0 mM NaCl",E. coli ML-35p,0.64 ± 0.15 µg/mL
same,"E. coli ML-35p MIC, 175 mM NaCl",E. coli ML-35p,12.6 ± 2.8 µg/mL
same,"E. coli DH-5α MIC, 0 mM NaCl",E. coli DH-5α,0.82 ± 0.12 µg/mL
same,"E. coli DH-5α MIC, 175 mM NaCl",E. coli DH-5α,5.35 ± 1.87 µg/mL
LRRIIRKIIHIIKK [Peptide 12],"MRSA ATCC 33591 MIC, 0 mM NaCl",MRSA ATCC 33591,11.0 ± 3.96 µg/mL
same,"MRSA ATCC 33591 MIC, 175 mM NaCl",MRSA ATCC 33591,>79.1 µg/mL
same,"P. aeruginosa MR-3007 MIC, 0 mM NaCl",P. aeruginosa MR 3007,0.98 ± 0.08 µg/mL
same,"P. aeruginosa MR-3007 MIC, 175 mM NaCl",P. aeruginosa MR 3007,46.3 ± 9.1 µg/mL
same,"P. aeruginosa PA-01 MIC, 0 mM NaCl",P. aeruginosa PA-01,0.98 ± 0.05 µg/mL
same,"P. aeruginosa PA-01 MIC, 175 mM NaCl",P. aeruginosa PA-01,11.9 ± 4.7 µg/mL
same,"S. aureus 930918-3 MIC, 0 mM NaCl",S. aureus 930918-3,2.40 ± 0.17 µg/mL
same,"S. aureus 930918-3 MIC, 175 mM NaCl",S. aureus 930918-3,79.1 ± 0 µg/mL
same,"E. coli ML-35p MIC, 0 mM NaCl",E. coli ML-35p,0.68 ± 0.07 µg/mL
same,"E. coli ML-35p MIC, 175 mM NaCl",E. coli ML-35p,>79.1 µg/mL
same,"E. coli DH-5α MIC, 0 mM NaCl",E. coli DH-5α,1.36 ± 0.19 µg/mL
same,"E. coli DH-5α MIC, 175 mM NaCl",E. coli DH-5α,19.1 ± 5.0 µg/mL
KIKEKLKKIGQKIQGLL [CAP18-17],MIC MRSA [NaCl] High,MRSA ATCC 33591,>250 µg/mL
same,MIC MRSA [NaCl] Low,MRSA ATCC 33591,>250 µg/mL
same,MIC P. aeruginosa [NaCl] High,P. aeruginosa MR 3007,>250 µg/mL
same,MIC P. aeruginosa [NaCl] Low,P. aeruginosa MR 3007,5.1 µg/mL
same,EC50 P. aeruginosa PAO1,P. aeruginosa PAO1; PAO1,>25 µg/mL
same,EC50 P. aeruginosa PAO1,P. aeruginosa PAO1; [1],2.33 ± 0.35 µg/mL
same,MIC S. aureus [NaCl] High,S. aureus 930918-3,>250 µg/mL
same,MIC S. aureus [NaCl] Low,S. aureus 930918-3,>250 µg/mL
same,MIC E. coli [NaCl] High,E. coli ML-35p,1.9 µg/mL
same,MIC E. coli [NaCl] Low,E. coli ML-35p,9.7 µg/mL
same,EC50,E. coli DH5α,1270 ± 200 nM
same,EC50 E. coli DH5α,E. coli DH5α,2.51 ± 0.38 µg/mL
LRKFRNKIKEKLKKIGQKIQG [CAP18-21b],MIC MRSA [NaCl] High,MRSA ATCC 33591,>250 µg/mL
same,MIC MRSA [NaCl] Low,MRSA ATCC 33591,10.3 µg/mL
same,MIC P. aeruginosa [NaCl] High,P. aeruginosa MR 3007,23.5 µg/mL
same,MIC P. aeruginosa [NaCl] Low,P. aeruginosa MR 3007,2.9 µg/mL
same,EC50 P. aeruginosa PAO1,P. aeruginosa PAO1; [1],1.83 ± 0.51 µg/mL
same,EC50 P. aeruginosa PAO1,P. aeruginosa PAO1; [2],3.45 ± 0.02 µg/mL
same,MIC S. aureus [NaCl] High,S. aureus 930918-3,>250 µg/mL
same,MIC S. aureus [NaCl] Low,S. aureus 930918-3,16.3 µg/mL
same,MIC E. coli [NaCl] High,E. coli ML-35p,0.5 µg/mL
same,MIC E. coli [NaCl] Low,E. coli ML-35p,2.3 µg/mL
same,EC50,E. coli DH5α,1170 ± 130 nM
same,EC50 E. coli DH5α,E. coli DH5α,2.99 ± 0.33 µg/mL
RRIIRKIIHIIK-NH2 [Peptide 17],"MRSA ATCC 33591 MIC, 0 mM NaCl",MRSA ATCC 33591,11.9 ± 4.7 µg/mL
same,"MRSA ATCC 33591 MIC, 175 mM NaCl",MRSA ATCC 33591,>79.1 µg/mL
same,"P. aeruginosa MR-3007 MIC, 0 mM NaCl",P. aeruginosa MR 3007,0.72 ± 0.15 µg/mL
same,"P. aeruginosa MR-3007 MIC, 175 mM NaCl",P. aeruginosa MR 3007,>79.1 µg/mL
same,"P. aeruginosa PA-01 MIC, 0 mM NaCl",P. aeruginosa PA-01,0.69 ± 0.08 µg/mL
same,"P. aeruginosa PA-01 MIC, 175 mM NaCl",P. aeruginosa PA-01,17.2 ± 4.6 µg/mL
same,"S. aureus 930918-3 MIC, 0 mM NaCl",S. aureus 930918-3,2.29 ± 0.07 µg/mL
same,"S. aureus 930918-3 MIC, 175 mM NaCl",S. aureus 930918-3,>79.1 µg/mL
same,"E. coli ML-35p MIC, 0 mM NaCl",E. coli ML-35p,0.29 ± 0.06 µg/mL
same,"E. coli ML-35p MIC, 175 mM NaCl",E. coli ML-35p,>79.1 µg/mL
same,"E. coli DH-5α MIC, 0 mM NaCl",E. coli DH-5α,0.51 ± 0.09 µg/mL
same,"E. coli DH-5α MIC, 175 mM NaCl",E. coli DH-5α,46.1 ± 16.1 µg/mL
CC[C@H](C)[C@H](N)C(=O)N[C@@H](CCCNC(=N)N)C(=O)N[C@@H](CCCNC(=N)N)C(=O)N[C@H](C(=O)N[C@H](C(=O)N[C@@H](CCCNC(=N)N)C(=O)N[C@@H](CCCCN)C(=O)N[C@H](C(=O)N[C@H](C(=O)N[C@@H](Cc1c[nH]cn1)C(=O)N[C@H](C(=O)N[C@H](C(=O)N[C@@H](CCCCN)C(=O)N[C@@H](CCCCN)C(=O)O)[C@@H](C)CC)[C@@H](C)CC)[C@@H](C)CC)[C@@H](C)CC)[C@@H](C)CC)[C@@H](C)CC [SMAP29X-14D],EC50 P. aeruginosa PAO1,P. aeruginosa PAO1; [1],0.65 ± 0.06 µg/mL
same,EC50 P. aeruginosa PAO1,P. aeruginosa PAO1; [2],7.11 ± 2.40 µg/mL
